Patent publication US6784201B2, “Benzothiepines having activity as inhibitors of ileal bile acid transport and taurocholate uptake” (G.D. Searle & Company, priority 1994, dated 2004)
Structures can show the parent of a compound that is named as a salt.

Legend:
human IBAT = target: T1, human IBAT (Homo sapiens, UniProt Q12908); assay: In vitro assay of IBAT-mediated uptake of [14C]-taurocholate (TC) in H14 cells; assay type: cell-based; conditions: for IC50: In Vitro Taurocholate Uptake, Table 10, read-out: Human TC IC50; for In vitro % Inhibition of TC Uptake: 50 μM
T1 construct: expressed in transfected cells; host or cells: Baby hamster kidney (BHK) cells, clone H14
T1 sequence (Q12908 1-348): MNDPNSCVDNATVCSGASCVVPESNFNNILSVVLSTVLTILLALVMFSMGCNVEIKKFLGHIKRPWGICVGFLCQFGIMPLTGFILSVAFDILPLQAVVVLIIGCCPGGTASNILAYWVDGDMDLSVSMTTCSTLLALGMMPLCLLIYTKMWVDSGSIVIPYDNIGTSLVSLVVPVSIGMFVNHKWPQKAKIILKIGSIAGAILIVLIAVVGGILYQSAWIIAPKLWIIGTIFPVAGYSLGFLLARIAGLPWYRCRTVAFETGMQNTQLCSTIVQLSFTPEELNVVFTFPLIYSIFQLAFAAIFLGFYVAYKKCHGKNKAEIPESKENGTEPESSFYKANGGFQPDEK
Summary of the method: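 BHK cells stably expressing human IBAT (H14) were incubated 2 h at 37° C with compound and 3 μM final [14C]-taurocholate in DMEM (4.5 g/L glucose) plus 0.2% fatty acid-free BSA. After cold PBS washes, cell-associated radioactivity was measured by scintillation counting.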

fecal bile acid (FBA) = assay: Rat gavage assay (fecal bile acid increase); assay type: in vivo
Description: Male Wister rats (275-300 g) are administered IBAT inhibitors using an oral gavage procedure. Drug or vehicle (0.2% Tween 80 in water) is administered once a day (9:00-10:0 a.m.) for 4 days at varying dosages in a final volume of 2 mL per kilogram of body weight. Total fecal samples are collected during the final 48 hours of the treatment period and analyzed for bile acid content using an enzymatic assay as described below. Compound efficacy is determined by comparison of the increase in fecal bile acid (FBA) concentration in treated rats to the mean FBA concentration of rats in the vehicle group.
Measurement of Fecal Bile Acid Concentration (FBA)
Total fecal output from individually housed hamsters was collected for 24 or 48 hours, dried under a stream of nitrogen, pulverized and weighed. Approximately 0.1 gram was weighed out and extracted into an organic solvent (butanol/water). Following separation and drying, the residue was dissolved in methanol and the amount of bile acid present was measured enzymatically using the 3α-hydroxysteroid steroid dehydrogenase reaction with bile acids to reduce NAD. (Reference: Mashige, F., et al. (1981) Clin. Chem. 27, 1352).

Molecule | IC50 (human IBAT) [nM] | Delta (micromoles fecal bile acid per day) (fecal bile acid (FBA); dose 2 mg/kg/day) | Delta (micromoles fecal bile acid per day) (fecal bile acid (FBA); dose .016 mg/kg/day) | Delta (micromoles fecal bile acid per day) (fecal bile acid (FBA); dose .08 mg/kg/day) | Delta (micromoles fecal bile acid per day) (fecal bile acid (FBA); dose .4 mg/kg/day) | Delta (micromoles fecal bile acid per day) (fecal bile acid (FBA); dose 5 mg/kg/day) | Delta (micromoles fecal bile acid per day) (fecal bile acid (FBA); dose .04 mg/kg/day) | Delta (micromoles fecal bile acid per day) (fecal bile acid (FBA); dose .2 mg/kg/day) | In vitro % Inhibition of TC Uptake (human IBAT) [%]
CCCCC1(CCCC)CS(=O)(=O)c2ccc(N(C)C)cc2[C@@H](c2ccc(OCC(=O)NCC(=O)O)cc2)[C@H]1O [Example 1403] | 23 | 41.6 micromoles fecal bile acid per day | 3 micromoles fecal bile acid per day | 11.9 micromoles fecal bile acid per day | 35.2 micromoles fecal bile acid per day | – | – | – | –
CCCCC1(CCCC)CS(=O)(=O)c2ccc(N(C)C)cc2[C@@H](c2ccc(OCCCCC(=O)O)cc2)[C@H]1O [Example 1404, (4R-cis)-5-[4-[3,3-Dibutyl-7-(dimethylamino)-2,3,4,5-tetrahydro-4-hydroxy-1,1-dioxido-1-benzothiepin-5-yl]phenoxy]pentanoic Acid] | 10 | – | – | – | – | 93.7 micromoles fecal bile acid per day | 33.5 micromoles fecal bile acid per day | 59.1 micromoles fecal bile acid per day | –
CCCCC1(CCCC)CS(=O)(=O)c2ccc(N(C)C)cc2[C@@H](c2ccc(OCc3cccc(CN(CC(=O)O)CC(=O)O)n3)cc2)[C@H]1O [Example 1431, (4R-cis)-N-(Carboxymethyl)-N-[[6-[[4-[3,3-dibutyl-7-(dimethylamino)-2,3,4,5-tetrahydro-4-hydroxy-1,1-dioxido-1-benzothiepin-5-yl]phenoxy]methyl]-2-pyridinyl]methyl]glycine] | 5 | – | – | – | – | – | – | – | –
cis-4-Hydroxy-5-phenyl-2,3,4,5-tetrahydro spiro(benzothiepine-3,1′-cyclohexane)-1,1-dioxide [Example 60] | – | – | – | – | – | – | – | – | 41
trans-4-Hydroxy-5-phenyl-2,3,4,5-tetrahydro spiro(benzothiepine-3,1′-cyclohexane)-1,1-dioxide [Example 59] | – | – | – | – | – | – | – | – | 96

More lines, main results first:

IC50 (human IBAT) [nM] | Molecule | Delta (micromoles fecal bile acid per day) (fecal bile acid (FBA); dose 2 mg/kg/day) | Delta (micromoles fecal bile acid per day) (fecal bile acid (FBA); dose .016 mg/kg/day) | Delta (micromoles fecal bile acid per day) (fecal bile acid (FBA); dose .08 mg/kg/day) | Delta (micromoles fecal bile acid per day) (fecal bile acid (FBA); dose .4 mg/kg/day) | Delta (micromoles fecal bile acid per day) (fecal bile acid (FBA); dose 5 mg/kg/day) | Delta (micromoles fecal bile acid per day) (fecal bile acid (FBA); dose .04 mg/kg/day) | Delta (micromoles fecal bile acid per day) (fecal bile acid (FBA); dose .2 mg/kg/day) | In vitro % Inhibition of TC Uptake (human IBAT) [%]
2 | CCCCC1(CCCC)CS(=O)(=O)c2ccc(N(C)C)cc2[C@@H](c2ccc(OCc3ccc(CN(CC(=O)O)CC(=O)O)cc3)cc2)[C@H]1O (relative stereo) [Example 1427] | 36.7 micromoles fecal bile acid per day | 13.8 micromoles fecal bile acid per day | 27.3 micromoles fecal bile acid per day | 35.8 micromoles fecal bile acid per day | – | – | – | –
4 | CCCCC1(CCCC)CS(=O)(=O)c2ccc(N(C)C)cc2[C@@H](c2ccc(OCCC[N+]34CCN(CC3)CC4)cc2)[C@H]1O [Example 1406, (4R-cis)-1-[3-[4-[3,3-Dibutyl-7-(dimethylamino)-2,3,4,5-tetrahydro-4-hydroxy-1,1-dioxido-1-benzothiepin-5-yl]phenoxy]propyl]-4-aza-1-azoniabicyclo[2.2.2]octane, Methanesulfonate (Salt)] | 47.8 micromoles fecal bile acid per day | −8.5 micromoles fecal bile acid per day | 12.8 micromoles fecal bile acid per day | 31.6 micromoles fecal bile acid per day | – | – | – | –
2 | CCCCC1(CCCC)CS(=O)(=O)c2ccc(N(C)C)cc2[C@@H](c2ccc(OCCCC[N+](CC)(CC)CC)cc2)[C@H]1O.CS(=O)(=O)[O-] [Example 1410, (4R-cis)-4-[4-[3,3-Dibutyl-7-(dimethylamino)-2,3,4,5-tetrahydro-4-hydroxy-1,1-dioxido-1-benzothiepin-5-yl]phenoxy]-N,N,N-triethyl-1-butanaminium] | 26.2 micromoles fecal bile acid per day | 20.4 micromoles fecal bile acid per day | 18.5 micromoles fecal bile acid per day | 36.5 micromoles fecal bile acid per day | – | – | – | –
